Columns and labels:
[1] = LD50 of the carboxylic acid derivative in mice via the caudal vein; settings: mouse, in vivo, intravenous, solution in physiological saline pH 7.4
Description: In addition, the inventors dissolved the compound of the present invention having the following formula in physiological saline, adjusted the pH of the solution to 7.4, and administered the solution to mice through the caudal vein.

[2] = In vitro dissociation of the water soluble taxane derivatives in blood plasma of rabbit; type: in vitro ADME, New Zealand white rabbits; settings: 37° C.
Experimental: The obtained water soluble taxane derivatives were formulated as 0.2 mg/ml aqueous solutions. […] After 5 min, 20 min and 60 min of incubation, 0.2 ml of solutions were respectively taken from each of the samples, and added to acetonitrile (0.4 ml) cooled to −20° C. for precipitation of protein.

[3] = In vitro dissociation of the water soluble taxane derivatives in blood plasma of rat; type: in vitro ADME, SD rats; settings: 37° C.
Experimental: The obtained water soluble taxane derivatives were formulated as 0.2 mg/ml aqueous solutions. […] After 2 min, 5 min and 10 min of incubation, 0.2 ml of solutions were respectively taken from each of the samples, and added to acetonitrile (0.4 ml) cooled to −20° C. for precipitation of protein.

[4] = rats, 5 mg/kg intravenous, 5 min after administration
Experimental: (§1) After 5 min of administration, 0.3 ml of venous blood was taken from the retrobulbar venous plexus of the rats, placed in heparinized tubes, and centrifuged at 11,000 rpm for 5 min. Plasma was separated, and the concentrations of the compounds in the plasma were determined by liquid chromatography □-mass spectrometry.

[5] = Solubility of the water soluble taxane derivatives in physiological saline; type: physicochemical
[6] = tested on: human prostate cancer PC-3; settings: 14 mg/kg;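 note: human prostate cancer PC-3 cells implanted under the skin of nude mice to form the xenograft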
Description: Test of the inhibitory activity of the water soluble docetaxel derivatives on subcutaneously xenografted tumor of human prostate cancer PC-3 in nude mice: evaluating and comparing the inhibitory activity of the water soluble docetaxel derivatives and docetaxel on subcutaneously xenografted tumor of human prostate cancer PC-3 in nude mice.
Human prostate cancer PC-3 cells were subcutaneously inoculated into nude mice. After the tumor volume reached 100-150 mm^3, the animals were randomly divided into several groups, and administered with the water soluble docetaxel derivatives of the present invention and docetaxel, respectively once on the same day (D0). The tumor volume was measured 2-3 times per week, the animals were weighed and the data were recorded until day 20 (D20) after grouping.
(§2) The tumor volume (V) was calculated according to the equation: V=½×a×b^2, wherein a and b represent the length and the width, respectively.
(§3) T/C (%)=(T−T0)/(C−C0)×100, wherein T and C represent the tumor volume at the end of the experiment; and T0 and C0 represent the tumor volume at the beginning of the experiment.

in vivo [7] = settings: male, SD, rat, iv, 5 mg/kg
Experimental: as §1

[8] = tested on: human ovarian cancer SK-OV-3
Description: Test of the inhibitory activity of the water soluble paclitaxel derivatives on subcutaneously xenografted tumor of human ovarian cancer SK-OV-3 in nude mice: evaluating and comparing the inhibitory activity of the water soluble paclitaxel derivatives of the present invention, paclitaxel and Abraxane® on subcutaneously xenografted tumor of human ovarian cancer SK-OV-3 in nude mice.
Human ovarian cancer SK-OV-3 cells were subcutaneously inoculated to nude mice. After the tumor volume reached 100-150 mm^3, the animals were randomly divided into groups (D0), and administered with the water soluble paclitaxel derivatives of the present invention, paclitaxel, and Abraxane®, respectively once per day for 5 days. The tumor volume was measured 2-3 times per week, the animals were weighed and the data were recorded until day 22 (D22) after grouping.
as §2, §3

in vivo [9] = settings: male, SD, rat, iv, 5 mg/kg; remark: listed apart in the source
Experimental: After 5 min of administration, 0.3 ml of venous blood was taken from the retrobulbar venous plexus of the rats, placed in heparinized tubes, and centrifuged at 11,000 rpm for 5 min. Blood plasma was separated, and the concentrations of the compounds in the blood plasma were determined by liquid chromatography-mass spectrometry.

[10] = PC-3 xenograft, nude mice, D0 IV, single dose, D20
[11] = D22, 24 mg/kg (paclitaxel 16 mg/kg) D0-4 IV

| Structure (SMILES) | dissociation percent ([2]; 5 min) [%] | dissociation percent ([2]; 20 min) [%] | dissociation percent ([2]; 60 min) [%] | dissociation percent ([3]; 2 min) [%] | dissociation percent ([3]; 5 min) [%] | dissociation percent ([3]; 10 min) [%] | detection of the administered derivative in the blood plasma [4] | also measured |
| --- | --- | --- | --- | --- | --- | --- | --- | --- |
| CN(C)CC[C@@H](F)C(=O)O.Cl | – | – | – | – | – | – | – | LD50 [1]: > 1500 mg/kg |
| CC(=O)OC12COC1CC(O)C1(C)C(=O)C(O)C3=C(C)C(OC(=O)C(OC(=O)C(F)CCN(C)C)C(NC(=O)OC(C)(C)C)c4ccccc4)CC(O)(C(OC(=O)c4ccccc4)C21)C3(C)C.Cl [Compound 04, 2′-O-[4-(N,N-dimethyl)amino-2(R)-fluorobutyryl]docetaxel Hydrochloride] | 80.2 | 93.5 | 100 | 58.6 | 92.6 | 100 | cannot be detected | – |
| CC(=O)O[C@@]12CO[C@@H]1C[C@H](O)[C@@]1(C)C(=O)[C@H](O)C3=C(C)[C@@H](OC(=O)[C@H](OC(=O)[C@@H](F)CCN(C)C)[C@@H](NC(=O)OC(C)(C)C)c4ccccc4)C[C@@](O)([C@@H](OC(=O)c4ccccc4)[C@H]21)C3(C)C.Cl [Compound 05, 2′-O-[4-(N,N-dimethyl)amino-2(S)-fluorobutyryl]docetaxel hydrochloride] | 79.3 | 91.8 | 100 | 56.4 | 91.1 | 100 | cannot be detected | – |
| CC(=O)O[C@@]12CO[C@@H]1C[C@H](O)[C@@]1(C)C(=O)[C@H](O)C3=C(C)[C@@H](OC(=O)[C@H](OC(=O)C(F)CCN(C)C)[C@@H](NC(=O)OC(C)(C)C)c4ccccc4)C[C@@](O)([C@@H](OC(=O)c4ccccc4)[C@H]21)C3(C)C.Cl (stereo partly drawn) [Compound 06, 2′-O-[4-(N,N-dimethyl)amino-2(R,S)-fluorobutyryl]docetaxel hydrochloride] | 75.6 | 98.6 | 100 | 56.4 | 91.1 | 100 | cannot be detected | – |
| CC(=O)O[C@@]12CO[C@@H]1C[C@H](O)[C@@]1(C)C(=O)[C@H](O)C3=C(C)[C@@H](OC(=O)[C@H](OC(=O)C(F)(F)CCCCCN4CC4)[C@@H](NC(=O)OC(C)(C)C)c4ccccc4)C[C@@](O)([C@@H](OC(=O)c4ccccc4)[C@H]21)C3(C)C.CS(=O)(=O)O [Compound 14, 2′-O-[7-N-(aziridin-1-yl)-2,2-difluoroheptanoyl]docetaxel methanesulfonate] | – | – | – | 42.1 | 55.7 | 72.5 | – | Solubility [5]: 14.3 mg/mL |
| CC(=O)O[C@H]1C(=O)[C@@]2(C)[C@H]([C@H](OC(=O)c3ccccc3)[C@]3(O)C[C@H](OC(=O)[C@H](OC(=O)C(F)(CCCCCCN(C)C4CCCC4)C(F)(F)F)[C@@H](NC(=O)c4ccccc4)c4ccccc4)C(C)=C1C3(C)C)[C@]1(OC(C)=O)CO[C@@H]1C[C@@H]2O.CS(=O)(=O)O (stereo partly drawn) [Compound 15, 2′-O-[8-(N-methyl-N-cyclopentyl)amino-2(R,S)-2-trifluoromethyl-2-fluorooctanoyl]paclitaxel methanesulfonate] | – | – | – | 35.0 | 46.2 | 57.9 | – | Solubility [5]: 15.0 mg/mL |
| CC(=O)O[C@@]12CO[C@@H]1C[C@H](O)[C@@]1(C)C(=O)[C@H](O)C3=C(C)[C@@H](OC(=O)[C@H](O)[C@@H](NC(=O)OC(C)(C)C)c4ccccc4)C[C@@](O)([C@@H](OC(=O)c4ccccc4)[C@H]21)C3(C)C [docetaxel, reference compound] | – | – | – | – | – | – | – | Tumor volume (mm^3) (D0) ([6]; PC-3 xenograft, nude mice, D0 IV, single dose, D0 (baseline at grouping)): 111.5 ± 1.3 mm^3; T/C (%) D20 [6, 10]: −27%; Tumor volume (mm^3) (D20) [6, 10]: 81.4 ± 25.1 mm^3; Tumor inhibitory percent (%) D20 ([6]; PC-3 xenograft, nude mice, D0 IV, single dose, D20, P(D20)=0.000 vs control): 127%; Weight change (%) D6 ([6]; mouse, in vivo, iv): −12.3%; concentration at 5 min (in vivo [7]): 769 ng/mL |
| CC(=O)O[C@H]1C(=O)[C@@]2(C)[C@H]([C@H](OC(=O)c3ccccc3)[C@]3(O)C[C@H](OC(=O)[C@H](O)[C@@H](NC(=O)c4ccccc4)c4ccccc4)C(C)=C1C3(C)C)[C@]1(OC(C)=O)CO[C@@H]1C[C@@H]2O [paclitaxel, reference compound] | – | – | – | – | – | – | – | Tumor volume (D0) ([8]; D0, at grouping, 24 mg/kg (paclitaxel 16 mg/kg) D0-4 IV): 134.6 ± 19.7 mm^3; T/C (%) D22 [8, 11]: −60%; Tumor volume (D22) [8, 11]: 53.7 ± 11.2 mm^3; Tumor inhibitory percent (%) D22 ([8]; D22, 24 mg/kg (paclitaxel 16 mg/kg) D0-4 IV, P=0.000 compared to the control): 160%; Weight change (%) D4 ([8]; mouse, in vivo): −4.8%; concentration at 5 min (in vivo [9]): 1790 ng/mL |

— patent US10239851B2 (priority 2014, dated 2019)
